According to patent US7381546B2, “Polyketides and their synthesis and use” (Biotica Technology Limited, priority 1998, dated 2008):
Where two headings read alike, the source gives them in different places. Each block holds one compound with its values, some of them ahead of it.

Tested on: human lymphoblastoid cell lines 536
Test: Tritiated thymidine incorporation (DNA synthesis) bioassay in 536 cells
Assay type: cell-based
Conditions: for IC50: after 24 and 48 hours drug exposure, radiolabelled thymidine incorporation (FIG. 4), read-out: ID50% concentration-dependent inhibition of DNA synthesis
Protocol: Rapamycin induces a specific cell cycle arrest in G1 in the cell line 536, which is a human B lymphocytic line immortalised by Epstein Barr virus infection. The potency of each analogue was compared to that of rapamycin using the 536 cells as a bioassay. The 536 cells (obtained from the human genetic mutant cell repository, Camden, N.J., USA) were cultured in Iscoves medium supplemented with 10% fetal calf serum. For bioassay, 536 cells were seeded into 96 well microtitre plates at 10,000 per well in 100 μl of growth medium. Drug stocks of 1 mM in DMSO were prepared and further dilutions were made to give a constant final concentration of 0.1% DMSO in growth medium. Control cultures were treated with 0.1% DMSO in growth medium; experimental cultures received a final concentration of 10^−7M, 10^−8M, 10^−9M or 10^−10M rapamycin or rapamycin analogue. Each culture was set up in triplicate and replicate plates were labelled with 1 μCi tritiated thymidine (Amersham International, specific activity 70 Ci/mM) per well for 3 h at either Oh; 24 h; or 48 h incubation with drugs. At the respective time points the cultures were harvested onto glass fibre paper to trap the DNA following water lysis; free nucleotides were washed away. Radioactivity incorporated into the filter discs/trapped DNA was counted in a Packard scintillation counter using biodegradable scintillation fluid.
The dose response of human lymphoblastoid cell lines 536 was measured. […] This implies that none of the compounds were toxic to the 536 cell line.

Compound: 4-hydroxy-prolyl-26-demethoxy-rapamycin
effect on DNA synthesis (mean cpm of radiolabelled thymidine incorporated) (0-3 h drug exposure, up to 100 nM (FIG. 3)): no appreciable effect | inhibition of DNA synthesis (at 100 nM, after 24 and 48 hours (FIG. 4)): < 50%

IC50: 3 nM
Compound: COC1CC2CCC(C)C(O)(O2)C(=O)C(=O)N2CCCC2C(=O)OC(C(C)CC2CCC(O)C(OC)C2)CC(=O)C(C)/C=C(\C)C(O)C(OC)C(=O)C(C)CC(C)/C=C/C=C/C=C/1C (stereo not shown) [prolylrapamycin]

IC50 (Homo sapiens, Lymphoblastoid cell): 1 nM
Compound: CO[C@H]1C[C@@H]2CC[C@@H](C)[C@@](O)(O2)C(=O)C(=O)N2CCCC[C@H]2C(=O)O[C@H]([C@H](C)C[C@@H]2CC[C@@H](O)[C@H](OC)C2)CC(=O)[C@H](C)/C=C(\C)[C@@H](O)[C@@H](OC)C(=O)[C@H](C)C[C@H](C)/C=C/C=C/C=C/1C [rapamycin, reference compound]
